{"source": "ChEMBL document CHEMBL5325413", "about": "“Optimization of BAX trigger site activator BTSA1 with improved antitumor potency and in vitro ADMET properties” (Eur J Med Chem, 2023)", "key": {"A549 [1]": {"tested_on": "A549", "test": "Induction of apoptosis in human A549 cells assessed as late apoptotic cells at 10 uM incubated for 48 hrs by Annexin V-FITC/PI staining based flow cytometry analysis (reference value: 2.52%)", "type": "functional"}, "in vitro": {"test": "in vitro", "conditions": "human, liver microsomes"}, "K562": {"tested_on": "K562", "test": "Antiproliferative activity against human K562 cells expressing BAX assessed as cell growth inhibition incubated for 72 hrs by trypan blue cell counting analysis", "type": "functional"}, "A549 [2]": {"tested_on": "A549", "test": "Antiproliferative activity against human A549 cells assessed as reduction in cell viability at 1 to 5 uM by MTT assay", "type": "functional, cell-based", "conditions": "dose 1-5 µM, time 24-72 hrs, TDE = time-dependent effect"}, "A549 [3]": {"tested_on": "A549", "test": "Induction of cell cycle arrest in human A549 cells assessed as accumulation of cells at G2/M phase at 2.5 uM incubated for 48 hrs by RNase/PI staining based flow cytometry analysis (reference value: 18.97%)", "type": "functional"}, "[4]": {"test": "Metabolic stability in human liver microsomes assessed as parent compound remaining at 100 uM incubated for 60 mins in presence of NADPH by LC-MS/MS analysis"}, "PC-3": {"tested_on": "PC-3", "test": "Antiproliferative activity against human PC-3 cells assessed as cell growth inhibition incubated for 72 hrs by MTT assay", "type": "functional"}, "A549 [5]": {"tested_on": "A549", "test": "Induction of apoptosis in human A549 cells assessed as late apoptotic cells at 5 uM incubated for 48 hrs by Annexin V-FITC/PI staining based flow cytometry analysis (reference value: 2.52%)", "type": "functional"}, "A549 [6]": {"tested_on": "A549", "test": "Induction of apoptosis in human A549 cells assessed as upregulation of BAX translocation at 20 uM incubated for 24 hrs by Western blot analysis", "type": "functional, cell-based"}, "HCT-116": {"tested_on": "HCT-116", "test": "Antiproliferative activity against human HCT-116 cells assessed as cell growth inhibition incubated for 72 hrs by MTT assay", "type": "functional"}, "[7]": {"test": "Drug recovery in human liver microsomes at 100 uM incubated for 60 mins in absence of NADPH by LC-MS/MS analysis", "type": "ADME, Microsome", "conditions": "read-out: Drug recovery"}, "THP-1": {"tested_on": "THP-1", "test": "Antiproliferative activity against human THP-1 cells expressing BAX assessed as cell growth inhibition incubated for 72 hrs by trypan blue cell counting analysis", "type": "functional"}, "A549 [8]": {"tested_on": "A549", "test": "Induction of apoptosis in human A549 cells assessed as live cells at 5 uM incubated for 48 hrs by Annexin V-FITC/PI staining based flow cytometry analysis (reference value: 95.9 %)", "type": "functional"}, "[9]": {"conditions": "human, 1 h, 100 µM"}, "A549 [10]": {"tested_on": "A549", "test": "Induction of cell cycle arrest in human A549 cells assessed as accumulation of cells at S phase at 2.5 uM incubated for 48 hrs by RNase/PI staining based flow cytometry analysis (reference value: 26.01%)", "type": "functional"}, "A549 [11]": {"tested_on": "A549", "test": "Induction of apoptosis in human A549 cells assessed as dead cells at 5 uM incubated for 48 hrs by Annexin V-FITC/PI staining based flow cytometry analysis (reference value: 0.535%)", "type": "functional"}, "A549 [12]": {"tested_on": "A549", "test": "Induction of apoptosis in human A549 cells assessed as live cells at 10 uM incubated for 48 hrs by Annexin V-FITC/PI staining based flow cytometry analysis (reference value: 95.9 %)", "type": "functional"}, "A549 [13]": {"tested_on": "A549", "test": "Inhibition of colony formation in human A549 cells at 3 uM incubated for 2 weeks by crystal violet staining based analysis relative to control", "type": "functional", "conditions": "A549, 336 h"}, "[14]": {"test": "Stability in rat plasma assessed as compound remaining measured after 60 mins", "type": "ADME, cell-free", "conditions": "read-out: Stability"}, "A549 [15]": {"tested_on": "A549", "test": "Antiproliferative activity against human A549 cells assessed as cell growth inhibition incubated for 72 hrs by MTT assay", "type": "functional"}, "A549 [16]": {"tested_on": "A549", "test": "Induction of apoptosis in human A549 cells assessed as early apoptotic cells at 10 uM incubated for 48 hrs by Annexin V-FITC/PI staining based flow cytometry analysis (reference value: 1.09 %)", "type": "functional"}, "[17]": {"test": "Stability in rat plasma assessed as compound remaining measured after 30 mins", "type": "ADME, cell-free", "conditions": "read-out: Stability"}, "A549 [18]": {"tested_on": "A549", "test": "Induction of apoptosis in human A549 cells assessed as late apoptotic cells at 10 uM incubated for 48 hrs by Annexin V-FITC/PI staining based flow cytometry analysis (reference value: 2.15%)", "type": "functional"}, "A549 [19]": {"tested_on": "A549", "test": "Induction of apoptosis in human A549 cells assessed as total apoptotic cells at 5 uM incubated for 48 hrs by Annexin V-FITC/PI staining based flow cytometry analysis (reference value: 4.26%)", "type": "functional"}, "MDA-MB-231": {"tested_on": "MDA-MB-231", "test": "Antiproliferative activity against human MDA-MB-231 cells expressing BAX assessed as cell growth inhibition incubated for 72 hrs by MTT assay", "type": "functional"}, "[20]": {"conditions": "mouse, 1 h, 100 µM"}, "NCI-H1581": {"tested_on": "NCI-H1581", "test": "Antiproliferative activity against human NCI-H1581 cells expressing BAX assessed as cell growth inhibition incubated for 72 hrs by MTT assay", "type": "functional"}, "[21]": {"test": "Stability in rat plasma assessed as half life", "type": "ADME, cell-free"}, "[22]": {"test": "Stability in rat plasma assessed as compound remaining measured immediately", "type": "ADME, cell-free", "conditions": "read-out: Stability"}, "A549 [23]": {"tested_on": "A549", "test": "Induction of apoptosis in human A549 cells assessed as dead cells at 10 uM incubated for 48 hrs by Annexin V-FITC/PI staining based flow cytometry analysis (reference value: 0.739%)", "type": "functional"}, "Cytochrome P450 3A4": {"target": "Cytochrome P450 3A4 (Homo sapiens, UniProt P08684)", "sequence (P08684 whole entry)": "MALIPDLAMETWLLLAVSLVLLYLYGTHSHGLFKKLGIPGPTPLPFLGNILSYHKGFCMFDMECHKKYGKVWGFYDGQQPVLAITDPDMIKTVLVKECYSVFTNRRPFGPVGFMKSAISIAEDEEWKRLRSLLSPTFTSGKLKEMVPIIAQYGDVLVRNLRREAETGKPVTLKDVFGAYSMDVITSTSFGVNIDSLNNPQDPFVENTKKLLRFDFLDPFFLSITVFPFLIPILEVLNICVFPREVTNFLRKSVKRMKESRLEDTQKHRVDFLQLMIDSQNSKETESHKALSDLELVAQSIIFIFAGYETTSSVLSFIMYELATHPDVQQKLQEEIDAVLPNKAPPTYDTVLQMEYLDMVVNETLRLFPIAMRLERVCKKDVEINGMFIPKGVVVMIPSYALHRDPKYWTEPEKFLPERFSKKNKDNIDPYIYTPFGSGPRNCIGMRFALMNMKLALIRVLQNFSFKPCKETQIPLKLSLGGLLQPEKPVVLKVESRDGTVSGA", "test": "Inhibition of CYP3A4 in human liver microsomes using midazolam as substrate prewarmed for 10 mins followed by NADPH addition and measured after 10 mins by LC-MS/MS analysis"}, "[24]": {"target": "Apoptosis regulator BAX (Homo sapiens) (UniProt Q07812)", "sequence (Q07812 whole entry)": "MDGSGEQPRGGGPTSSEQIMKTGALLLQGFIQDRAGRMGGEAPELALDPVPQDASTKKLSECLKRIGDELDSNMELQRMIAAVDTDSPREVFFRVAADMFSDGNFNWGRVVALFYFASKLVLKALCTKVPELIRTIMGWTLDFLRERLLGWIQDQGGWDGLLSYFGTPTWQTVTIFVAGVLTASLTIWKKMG", "test": "Activation of BAX in human A549 cells assessed as increase in cytochrome-c release incubated for 24 hrs by Western blot analysis", "type": "cell-based", "conditions": "filed as activator, dose 5-40 µM"}, "A549 [25]": {"tested_on": "A549", "test": "Induction of apoptosis in human A549 cells assessed as nuclear fragmentation at 2.5 to 10 uM incubated for 48 hrs by Hoechst 33342 staining based fluorescence microscopic analysis", "type": "functional, cell-based", "conditions": "dose 2.5-10 µM"}, "[26]": {"target": "Apoptosis regulator BAX (Homo sapiens) (UniProt Q07812)", "test": "Activation of BAX in human A549 cells at 20 uM incubated for 24 hrs by NP-40 based immunoprecipitation analysis", "type": "cell-based", "conditions": "filed as activator"}, "A549 [27]": {"tested_on": "A549", "test": "Induction of apoptosis in human A549 cells assessed as early apoptotic cells at 10 uM incubated for 48 hrs by Annexin V-FITC/PI staining based flow cytometry analysis (reference value: 0.708%)", "type": "functional"}, "A549 [28]": {"tested_on": "A549", "test": "Induction of apoptosis in human A549 cells assessed as total apoptotic cells at 10 uM incubated for 48 hrs by Annexin V-FITC/PI staining based flow cytometry analysis (reference value: 2.86%)", "type": "functional"}, "A549 [29]": {"tested_on": "A549", "test": "Induction of apoptosis in human A549 cells assessed as increase in cleaved PARP level incubated for 48 hrs by Western blot analysis", "type": "functional, cell-based", "conditions": "dose 5-40 µM"}, "A549 [30]": {"tested_on": "A549", "test": "Induction of cell cycle arrest in human A549 cells assessed as accumulation of cells at G2/M phase at 5 uM incubated for 48 hrs by RNase/PI staining based flow cytometry analysis (reference value: 18.97%)", "type": "functional"}, "A549 [31]": {"tested_on": "A549", "test": "Induction of apoptosis in human A549 cells assessed as total apoptotic cells at 10 uM incubated for 48 hrs by Annexin V-FITC/PI staining based flow cytometry analysis (reference value: 4.26%)", "type": "functional"}}, "note": "The source made the active and inactive calls. The rule behind the calls is not given here."}
{"smiles": "CN(C)C1CCN(C(=O)c2ccc(N3N=C(c4ccccc4)/C(=N/Nc4ccccc4)C3=O)cc2)CC1", "values": [{"measurement": "Activity", "setting": "A549 [1]", "value": 18.4, "unit": "%"}, {"measurement": "half-life at 1 h, 100 µM", "setting": "in vitro", "value": "> 2.42", "unit": "h"}, {"measurement": "GI50", "setting": "K562", "value": 1410, "unit": "nM"}, {"measurement": "Activity", "setting": "A549 [2]", "value": "Tde"}, {"measurement": "Activity", "setting": "A549 [3]", "value": 16.48, "unit": "%"}, {"measurement": "remaining at 1 h, 100 µM", "setting": "[4]", "value": 97.9, "unit": "%"}, {"measurement": "GI50", "setting": "PC-3", "value": 2500, "unit": "nM"}, {"measurement": "Activity", "setting": "A549 [5]", "value": 4.83, "unit": "%"}, {"measurement": "Activity", "setting": "A549 [6]", "value": "Active"}, {"measurement": "GI50", "setting": "HCT-116", "value": 3310, "unit": "nM"}, {"measurement": "remaining at 1 h, 100 µM", "setting": "[7]", "value": 102, "unit": "%"}, {"measurement": "GI50", "setting": "THP-1", "value": 2180, "unit": "nM"}, {"measurement": "Activity", "setting": "A549 [8]", "value": 84.2, "unit": "%"}, {"measurement": "CLH", "setting": "[9]", "value": "< 8.6", "unit": "mL/min/kg"}, {"measurement": "Activity", "setting": "A549 [10]", "value": 25.51, "unit": "%"}, {"measurement": "Activity", "setting": "A549 [11]", "value": 0.284, "unit": "%"}, {"measurement": "Activity", "setting": "A549 [12]", "value": 26.1, "unit": "%"}, {"measurement": "inhibition at 3 µM", "setting": "A549 [13]", "value": "> 50", "unit": "%"}, {"measurement": "remaining at 1 h", "setting": "[14]", "value": 94.8, "unit": "%"}, {"measurement": "GI50", "setting": "A549 [15]", "value": 2150, "unit": "nM"}, {"measurement": "Activity", "setting": "A549 [16]", "value": 55, "unit": "%"}, {"measurement": "remaining at 0.5 h", "setting": "[17]", "value": 99.1, "unit": "%"}, {"measurement": "Activity", "setting": "A549 [18]", "value": 22.5, "unit": "%"}, {"measurement": "Activity", "setting": "A549 [19]", "value": 15.43, "unit": "%"}, {"measurement": "GI50", "setting": "MDA-MB-231", "value": 3980, "unit": "nM"}, {"measurement": "CLH", "setting": "[20]", "value": "< 0.038", "unit": "mL/min/kg"}, {"measurement": "GI50", "setting": "NCI-H1581", "value": 2150, "unit": "nM"}, {"measurement": "half-life", "setting": "[21]", "value": "> 4.82", "unit": "h"}, {"measurement": "remaining at 0 min", "setting": "[22]", "value": 100, "unit": "%"}, {"measurement": "Activity", "setting": "A549 [23]", "value": 0.535, "unit": "%"}, {"measurement": "IC50", "setting": "Cytochrome P450 3A4", "value": "> 50000", "unit": "nM"}, {"measurement": "Activity", "setting": "[24]", "value": "Dose-Dependent Effect"}, {"measurement": "Activity", "setting": "A549 [25]", "value": "Active"}, {"measurement": "Activity", "setting": "[26]", "value": "Active"}, {"measurement": "Activity", "setting": "A549 [27]", "value": 71.2, "unit": "%"}, {"measurement": "Activity", "setting": "A549 [28]", "value": 93.7, "unit": "%"}, {"measurement": "Activity", "setting": "A549 [29]", "value": "Dose-Dependent Effect"}, {"measurement": "Activity", "setting": "A549 [30]", "value": 8.3, "unit": "%"}, {"measurement": "Activity", "setting": "A549 [31]", "value": 73.4, "unit": "%"}]}
